# From patent US10172857B2, “Boosting the effect of methotrexate through the combined use with lipophilic statins” (Dalana3, S.L., priority 2013, dated 2019)
# Experiments:
# Assay type in all cases: cell-based, human
# HOS cells [1] = test: Analysis of the cell cycle by flow cytometry (PI); conditions: for changes in the distribution of the cell cycle (summary): FIGS. 11-15; for changes in the cell cycle with increasing doses: MTX 10-200 nM or SV 0.2-10 μM
# Protocol: In order to analyse the changes in the distribution of the cell cycle the cells are seeded and treated under the same conditions employed with the Annexin V dye. The treated and untreated cells are resuspended in NP-40 at 1% dissolved in PBS additionally containing 50 μg/mL PI at a density of 3×10^5 cells/sample. The analysis and quantification of each of the experimental conditions is then carried out after 15 minutes incubation in the dark and at ambient temperature, following the same methodology as employed in the apoptosis experiments with Annexin-V staining (FACSCalibur flow cytometry and Cell Quest software).
# osteosarcoma cells (HOS) = test: Cell viability test, trypan blue staining and counting in Neubauer chamber; conditions: for morphological changes: 0.5 μM simvastatin, 50 nM methotrexate or both, 48 and 72 hours; for effect on cell proliferation and cell death (trypan blue counts): FIGS. 6-10
# Protocol: The HOS cells are cultivated in a culture medium supplemented with 5-10% heat-inactivated foetal bovine serum and 2 mM of L-glutamine, at 37° C., 95% humidity and 5% atmospheric CO2. The cells are treated with 0.5 μM of simvastatin and with 50 nM of MTX for 24, 48 and 72 hours. The cells are collected by trypsinization. This involves first aspirating the cultivation medium; the cells are then washed with 2-3 mL of PBS (sterile); add 0.5-1 mL of trypsin-EDTA solution (sterile); incubated at 37° for 5 minutes; the cells are collected with 5 mL of fresh culture medium; and the suspension is placed in a sterile 15 mL tube. The trypan blue dye is used in order to determine cell viability. Trypan blue is a colloid that enters the cells through breaks in the cell membrane. Therefore, the cells that appear in the image, clearly stained blue, are considered to be non-viable. For the measurement, mix 50 μL of the trypan blue solution and 50 μL of cell suspension are placed in a 1.5 mL tube. The mixture is homogenised and 10 μL placed in a Neubauer chamber. The total cells and the non-viable cells (completely stained blue) are counted.
# HOS cells [2] = test: Apoptosis testing by flow cytometry (SubG0 peak); conditions: 48 hours
# [3] = HOS cells, SV 1 μM alone, 24 hours
SMILES,changes in the distribution of the cell cycle (summary) (HOS cells [1]),"changes in the cell cycle with increasing doses (HOS cells [1]; HOS cells, 24 hours)",morphological changes (osteosarcoma cells (HOS)),effect on cell proliferation and cell death (trypan blue counts) (osteosarcoma cells (HOS)),MTX concentration at incipient appearance of the SubG0 peak (cell death by apoptosis) (HOS cells [2]; MTX 10-200 nM tested) [NM],number of cells quantified in the SubG0 phase (HOS cells [2]; doses above 50 nM of MTX),decrease of the G1 phase compared to the control (HOS cells [1]; [3]) [%],increase of cells in the G2/M phase compared to the control (HOS cells [1]; [3]) [%],SV concentration at appearance of the SubG0 peak (cell death by apoptosis) (HOS cells [2]; SV 0.2-10 μM tested) [µM],SV concentration at maximum of the SubG0 peak (HOS cells [2]; SV 0.2-10 μM tested) [µM],number of cells quantified in the SubG0 phase (HOS cells [2]; doses above 0.2 μM SV)
"CN(Cc1cnc2nc(N)nc(N)c2n1)c1ccc(C(=O)N[C@@H](CCC(=O)O)C(=O)O)cc1 [MTX, (2S)-2-[(4-{[(2,4-diaminopteridin-6-yl)methyl](methyl)amino}benzoyl)amino]pentanedioic acid]",halt in the cycle in phase G1,"decrease in the S phase and in the number of cells in phase G2/M, with subsequent accumulation in the phase G1",enlarged cells and even those with two nuclei,preferentially acts to slow cell proliferation,20,significant increase,,,,,
"CCC(C)(C)C(=O)O[C@H]1C[C@@H](C)C=C2C=C[C@H](C)[C@H](CC[C@@H]3C[C@@H](O)CC(=O)O3)[C@H]21 [SV, simvastatin]",halts the cycle in phase G2/M,"decrease in the S phase and in the number of cells in phase G1 is notable, with subsequent accumulation in the phase G2/M",rounded cells,predominant effect on the induction of cell death,,,19.60,40.92,< 0.2,10,notable increase
